Measurements taken from ChEMBL document CHEMBL5579820, “New insights into butyrylcholinesterase: Pharmaceutical applications, selective inhibitors and multitarget-directed ligands” (Eur J Med Chem, 2024).

Tests used:
Acetylcholinesterase [1] = target: T1, Acetylcholinesterase (Homo sapiens, UniProt P22303); assay: Binding affinity to AChE (unknown origin) assessed as inhibition constant
Cholinesterase [2] = target: T2, Cholinesterase (Homo sapiens, UniProt P06276); assay: Binding affinity to BChE (unknown origin) assessed as inhibition constant
T2 sequence (P06276 whole entry): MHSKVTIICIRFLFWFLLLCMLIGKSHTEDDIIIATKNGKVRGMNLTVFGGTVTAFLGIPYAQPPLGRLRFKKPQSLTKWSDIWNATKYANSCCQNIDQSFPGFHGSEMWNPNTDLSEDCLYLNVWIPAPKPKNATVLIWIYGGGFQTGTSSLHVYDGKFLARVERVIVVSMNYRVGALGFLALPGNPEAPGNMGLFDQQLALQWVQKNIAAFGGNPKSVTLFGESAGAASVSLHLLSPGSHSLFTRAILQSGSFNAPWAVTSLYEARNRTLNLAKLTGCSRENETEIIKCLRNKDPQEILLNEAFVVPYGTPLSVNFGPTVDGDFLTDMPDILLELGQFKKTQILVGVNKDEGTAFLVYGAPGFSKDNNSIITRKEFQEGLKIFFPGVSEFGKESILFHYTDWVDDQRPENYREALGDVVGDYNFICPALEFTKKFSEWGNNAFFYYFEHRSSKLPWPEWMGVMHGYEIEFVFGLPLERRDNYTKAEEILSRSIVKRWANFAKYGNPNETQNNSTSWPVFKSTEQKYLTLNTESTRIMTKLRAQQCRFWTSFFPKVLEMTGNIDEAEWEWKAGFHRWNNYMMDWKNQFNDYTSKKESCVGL

Acetylcholinesterase [3] = target: T1, Acetylcholinesterase; assay: Inhibition of human AChE using acetylthiocholine iodide as substrate after 15 mins by Ellman's method
Cholinesterase [4] = target: T3, Cholinesterase (Equus caballus, UniProt P81908); assay: Inhibition of equine BuChE
T3 sequence (P81908 whole entry): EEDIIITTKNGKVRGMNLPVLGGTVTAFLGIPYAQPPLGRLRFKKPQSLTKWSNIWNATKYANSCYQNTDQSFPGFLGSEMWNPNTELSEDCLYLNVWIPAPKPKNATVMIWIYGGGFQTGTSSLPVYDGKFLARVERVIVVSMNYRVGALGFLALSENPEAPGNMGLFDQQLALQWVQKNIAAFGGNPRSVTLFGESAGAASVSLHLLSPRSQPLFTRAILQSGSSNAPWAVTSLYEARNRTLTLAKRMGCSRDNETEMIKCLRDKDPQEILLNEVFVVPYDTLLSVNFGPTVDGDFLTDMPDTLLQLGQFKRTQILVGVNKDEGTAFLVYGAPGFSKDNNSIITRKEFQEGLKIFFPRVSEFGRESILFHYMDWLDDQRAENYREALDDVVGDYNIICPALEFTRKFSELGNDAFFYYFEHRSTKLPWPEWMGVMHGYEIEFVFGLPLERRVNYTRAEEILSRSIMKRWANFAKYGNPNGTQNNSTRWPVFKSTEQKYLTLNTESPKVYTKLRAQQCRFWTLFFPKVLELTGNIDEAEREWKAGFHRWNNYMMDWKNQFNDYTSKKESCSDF

[5] = Selectivity index, ratio of IC50 for human erythrocyte AChE to IC50 for equine BuChE
[6] = target: Acetylcholinesterase (Electrophorus electricus) (UniProt O42275); assay: Inhibition of electric eel AChE using acetylthiocholine iodide as substrate at 50 uM by Ellman's method relative to control
Chain of Acetylcholinesterase (Electrophorus electricus) (O42275 24-633 limits assumed): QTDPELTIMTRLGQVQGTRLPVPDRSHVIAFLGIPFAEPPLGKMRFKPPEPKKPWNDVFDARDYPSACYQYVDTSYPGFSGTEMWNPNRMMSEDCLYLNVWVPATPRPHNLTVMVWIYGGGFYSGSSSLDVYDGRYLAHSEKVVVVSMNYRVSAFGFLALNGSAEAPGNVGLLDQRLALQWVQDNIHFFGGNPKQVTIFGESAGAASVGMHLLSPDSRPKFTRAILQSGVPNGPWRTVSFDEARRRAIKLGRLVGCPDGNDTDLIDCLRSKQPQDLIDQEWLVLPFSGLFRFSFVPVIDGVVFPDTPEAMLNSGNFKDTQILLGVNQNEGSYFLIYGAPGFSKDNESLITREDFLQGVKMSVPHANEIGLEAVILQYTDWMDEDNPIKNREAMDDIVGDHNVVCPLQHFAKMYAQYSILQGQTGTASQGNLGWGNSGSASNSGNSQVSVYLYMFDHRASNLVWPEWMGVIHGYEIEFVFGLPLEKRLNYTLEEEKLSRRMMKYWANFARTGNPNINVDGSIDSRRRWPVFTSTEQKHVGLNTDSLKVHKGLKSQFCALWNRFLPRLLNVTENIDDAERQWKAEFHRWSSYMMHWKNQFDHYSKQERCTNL

Cholinesterase [7] = target: T2, Cholinesterase; assay: Inhibition of human BChE using butyrylthiocholine as substrate by Ellman's method
Acetylcholinesterase [8] = target: T4, Acetylcholinesterase (Electrophorus electricus, UniProt O42275); assay: Inhibition of electric eel AChE
T4 sequence (O42275 whole entry): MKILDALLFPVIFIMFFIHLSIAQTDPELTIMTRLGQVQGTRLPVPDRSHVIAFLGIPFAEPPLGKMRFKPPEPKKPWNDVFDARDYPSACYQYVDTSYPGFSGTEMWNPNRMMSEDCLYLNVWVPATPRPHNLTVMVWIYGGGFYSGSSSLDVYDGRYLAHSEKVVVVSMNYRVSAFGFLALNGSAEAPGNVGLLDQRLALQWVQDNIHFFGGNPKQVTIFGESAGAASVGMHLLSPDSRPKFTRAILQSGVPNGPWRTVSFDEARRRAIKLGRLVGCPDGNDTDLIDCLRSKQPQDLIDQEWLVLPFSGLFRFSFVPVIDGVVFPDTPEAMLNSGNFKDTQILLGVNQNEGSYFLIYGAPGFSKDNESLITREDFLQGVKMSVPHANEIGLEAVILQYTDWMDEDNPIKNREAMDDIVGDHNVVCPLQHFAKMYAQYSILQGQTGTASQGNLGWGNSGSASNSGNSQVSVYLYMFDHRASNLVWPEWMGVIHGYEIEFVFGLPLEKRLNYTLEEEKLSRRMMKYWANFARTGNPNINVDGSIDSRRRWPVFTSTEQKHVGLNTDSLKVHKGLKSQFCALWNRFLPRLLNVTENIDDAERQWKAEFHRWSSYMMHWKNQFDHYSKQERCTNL

Cholinesterase [9] = target: T2, Cholinesterase
Acetylcholinesterase [10] = target: T1, Acetylcholinesterase
[11] = target: T5, Protein deacetylase HDAC6 (Homo sapiens, UniProt Q9UBN7); assay: Inhibition of HDAC6 (unknown origin)
T5 sequence (Q9UBN7 whole entry): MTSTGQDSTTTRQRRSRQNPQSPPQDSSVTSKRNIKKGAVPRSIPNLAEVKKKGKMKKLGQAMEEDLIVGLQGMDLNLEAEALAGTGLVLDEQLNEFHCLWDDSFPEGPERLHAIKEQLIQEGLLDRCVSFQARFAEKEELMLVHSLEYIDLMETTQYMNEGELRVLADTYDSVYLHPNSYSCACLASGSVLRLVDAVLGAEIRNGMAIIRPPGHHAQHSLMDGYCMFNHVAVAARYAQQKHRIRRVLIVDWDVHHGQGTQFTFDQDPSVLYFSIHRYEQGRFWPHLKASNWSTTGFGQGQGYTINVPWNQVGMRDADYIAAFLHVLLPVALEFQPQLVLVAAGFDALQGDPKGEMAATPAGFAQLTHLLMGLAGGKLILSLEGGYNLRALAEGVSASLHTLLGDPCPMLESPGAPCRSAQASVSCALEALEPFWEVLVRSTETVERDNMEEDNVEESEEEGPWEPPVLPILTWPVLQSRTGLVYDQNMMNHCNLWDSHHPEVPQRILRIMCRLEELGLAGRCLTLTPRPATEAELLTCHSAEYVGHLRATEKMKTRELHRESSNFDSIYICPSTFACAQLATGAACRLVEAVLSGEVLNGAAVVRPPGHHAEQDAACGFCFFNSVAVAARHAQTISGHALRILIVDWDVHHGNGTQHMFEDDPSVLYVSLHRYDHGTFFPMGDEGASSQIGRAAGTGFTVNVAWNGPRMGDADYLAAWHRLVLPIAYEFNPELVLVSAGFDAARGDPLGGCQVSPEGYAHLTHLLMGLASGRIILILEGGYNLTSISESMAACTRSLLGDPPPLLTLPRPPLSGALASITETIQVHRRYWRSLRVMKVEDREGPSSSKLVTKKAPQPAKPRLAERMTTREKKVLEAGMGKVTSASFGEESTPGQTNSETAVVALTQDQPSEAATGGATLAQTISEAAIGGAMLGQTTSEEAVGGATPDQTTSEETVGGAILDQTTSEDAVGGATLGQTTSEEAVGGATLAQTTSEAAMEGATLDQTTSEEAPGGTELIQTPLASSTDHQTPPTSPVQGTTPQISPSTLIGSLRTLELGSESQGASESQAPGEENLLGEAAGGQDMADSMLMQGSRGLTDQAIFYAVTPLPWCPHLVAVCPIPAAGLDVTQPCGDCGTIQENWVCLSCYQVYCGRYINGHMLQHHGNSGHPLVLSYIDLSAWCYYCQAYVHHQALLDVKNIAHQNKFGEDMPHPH

Cholinesterase [12] = target: T2, Cholinesterase; assay: Inhibition of human BChE using butyrylthiocholine iodide as substrate preincubated for 15 min followed by substrate addition measured after 40 min by Ellman's method
[13] = Selectivity index, ratio of IC50 for human AChE to IC50 for equine BChE using butyrylthiocholine as substrate
[14] = target: Amyloid-beta precursor protein (Homo sapiens) (UniProt P05067); assay: Inhibition of self induced amyloid-beta aggregation (1 to 42 residues) (unknown origin) at 20 uM by ThT fluorescence based spectrofluorimetric analysis relative to control
Chain of Amyloid-beta precursor protein (Homo sapiens) (P05067 whole entry, the tested form may be a part): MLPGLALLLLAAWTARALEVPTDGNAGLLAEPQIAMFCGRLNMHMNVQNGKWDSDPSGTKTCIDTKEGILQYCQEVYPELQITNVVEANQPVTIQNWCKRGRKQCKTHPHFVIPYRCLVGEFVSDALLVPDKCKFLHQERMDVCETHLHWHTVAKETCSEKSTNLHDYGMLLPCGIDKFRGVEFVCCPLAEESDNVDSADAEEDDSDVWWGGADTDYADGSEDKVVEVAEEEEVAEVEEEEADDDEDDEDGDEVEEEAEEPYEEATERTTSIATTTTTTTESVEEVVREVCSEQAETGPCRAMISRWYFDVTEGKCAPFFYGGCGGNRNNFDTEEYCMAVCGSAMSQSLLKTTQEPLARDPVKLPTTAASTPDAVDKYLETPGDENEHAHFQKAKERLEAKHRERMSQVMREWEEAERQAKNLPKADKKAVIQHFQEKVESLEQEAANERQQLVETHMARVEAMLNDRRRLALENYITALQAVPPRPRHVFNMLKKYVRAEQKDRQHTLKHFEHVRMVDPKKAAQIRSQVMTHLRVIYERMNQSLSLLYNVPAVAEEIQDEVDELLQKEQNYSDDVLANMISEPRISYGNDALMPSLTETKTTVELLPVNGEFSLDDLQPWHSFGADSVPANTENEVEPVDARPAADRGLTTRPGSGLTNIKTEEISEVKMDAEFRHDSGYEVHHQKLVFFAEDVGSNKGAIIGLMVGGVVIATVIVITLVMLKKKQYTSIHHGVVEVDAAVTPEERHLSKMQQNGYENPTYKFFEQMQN

Acetylcholinesterase [15] = target: T4, Acetylcholinesterase; assay: Inhibition of electric eel AChE using acetylthiocholine iodide as substrate after 60 mins by Ellman's method
Cholinesterase [16] = target: T3, Cholinesterase; assay: Inhibition of equine serum BuChE by Ellman's method
[17] = target: T6, Amine oxidase [flavin-containing] A (Homo sapiens, UniProt P21397); assay: Inhibition of human recombinant MAO-A using kynuramine as substrate by incubated for 75 mins by spectrophotometric analysis
T6 sequence (P21397 whole entry): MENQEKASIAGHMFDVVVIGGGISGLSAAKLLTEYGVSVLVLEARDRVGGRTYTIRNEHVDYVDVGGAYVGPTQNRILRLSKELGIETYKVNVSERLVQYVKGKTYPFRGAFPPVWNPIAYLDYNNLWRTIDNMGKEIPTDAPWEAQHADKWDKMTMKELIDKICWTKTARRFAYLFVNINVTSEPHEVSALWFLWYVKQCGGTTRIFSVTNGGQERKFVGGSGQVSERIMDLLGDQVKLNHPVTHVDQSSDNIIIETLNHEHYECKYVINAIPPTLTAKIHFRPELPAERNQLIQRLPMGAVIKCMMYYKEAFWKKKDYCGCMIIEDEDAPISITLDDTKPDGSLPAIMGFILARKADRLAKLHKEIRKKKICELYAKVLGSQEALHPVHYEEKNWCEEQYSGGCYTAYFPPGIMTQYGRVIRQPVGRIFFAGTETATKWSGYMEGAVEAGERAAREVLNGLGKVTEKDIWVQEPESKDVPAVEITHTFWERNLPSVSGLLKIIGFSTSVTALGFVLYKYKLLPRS

[18] = target: T7, Amine oxidase [flavin-containing] B (Homo sapiens, UniProt P27338); assay: Inhibition of human recombinant MAO-B using benzylamine as substrate by fluorescence based analysis
T7 sequence (P27338 whole entry): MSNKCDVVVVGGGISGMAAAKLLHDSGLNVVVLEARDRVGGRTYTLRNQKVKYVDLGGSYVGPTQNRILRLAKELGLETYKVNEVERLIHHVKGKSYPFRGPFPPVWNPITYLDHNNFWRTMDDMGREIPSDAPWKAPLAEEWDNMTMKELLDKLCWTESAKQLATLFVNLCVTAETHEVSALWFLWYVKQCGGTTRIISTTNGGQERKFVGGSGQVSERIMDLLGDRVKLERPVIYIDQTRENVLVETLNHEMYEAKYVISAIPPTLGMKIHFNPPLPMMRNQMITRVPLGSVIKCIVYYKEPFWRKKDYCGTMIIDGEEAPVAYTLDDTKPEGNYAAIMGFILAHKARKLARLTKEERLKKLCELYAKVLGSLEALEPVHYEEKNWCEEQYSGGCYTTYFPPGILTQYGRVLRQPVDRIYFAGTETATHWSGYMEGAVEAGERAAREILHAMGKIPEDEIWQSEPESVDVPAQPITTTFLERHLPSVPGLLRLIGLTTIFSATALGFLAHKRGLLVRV

[19] = Inhibition of equine serum BChE using butyrylthiocholine iodide as substrate by measured after 30 mins Ellman's method; format: cell-free, Equus caballus
Cholinesterase [20] = target: T3, Cholinesterase; assay: Inhibition of equine serum BuChE using butyrylthiocholine iodide as substrate preincubated for 60 mins followed by susbtrate addition by Ellaman"s method; format: cell-free
Acetylcholinesterase [21] = target: T4, Acetylcholinesterase; assay: Inhibition of Electric eel AChE using […] as substrate by spectrophotometry based Ellman's method
[22] = Inhibition of equine serum BChE using butyrylthiocholine iodide as substrate by Ellman's method; set-up: species or system Equus caballus
[23] = Selectivity index, ratio of IC50 for electric eel AChE to IC50 for equine serum BuChE

T1 sequence (P22303 whole entry): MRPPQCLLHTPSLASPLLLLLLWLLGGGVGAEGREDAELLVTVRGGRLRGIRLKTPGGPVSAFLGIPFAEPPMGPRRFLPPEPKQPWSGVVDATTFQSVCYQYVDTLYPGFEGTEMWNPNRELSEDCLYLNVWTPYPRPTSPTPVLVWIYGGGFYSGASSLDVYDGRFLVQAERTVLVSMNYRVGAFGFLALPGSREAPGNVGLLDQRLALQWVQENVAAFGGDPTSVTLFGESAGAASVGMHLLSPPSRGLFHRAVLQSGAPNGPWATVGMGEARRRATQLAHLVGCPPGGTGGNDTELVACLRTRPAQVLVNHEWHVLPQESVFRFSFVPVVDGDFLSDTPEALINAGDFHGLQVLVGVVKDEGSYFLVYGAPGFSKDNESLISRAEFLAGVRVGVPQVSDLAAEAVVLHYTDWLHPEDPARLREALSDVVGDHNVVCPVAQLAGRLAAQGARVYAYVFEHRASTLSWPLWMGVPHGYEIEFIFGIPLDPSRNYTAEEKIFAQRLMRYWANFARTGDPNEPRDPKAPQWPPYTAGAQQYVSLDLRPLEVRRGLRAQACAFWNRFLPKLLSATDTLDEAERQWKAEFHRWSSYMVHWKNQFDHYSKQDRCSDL

Compound `O=C(Oc1cc(OC(=O)N2CCCCC2)cc(C(O)CN2CCCCC2)c1)N1CCCCC1` (configuration not stated) has a Ki (Acetylcholinesterase [1]) of 6.93 µM and a Ki (Cholinesterase [2]) of 0.011 µM.
Compound `O=C(NCCCCCCNc1c2c(nc3ccccc13)CCCC2)c1ccccc1O` has an IC50 (Acetylcholinesterase [3]) of 0.02 µM and an IC50 (Cholinesterase [4]) of 0.01 µM.
`CC(C)(C)c1cc(CNCCNc2c3c(nc4ccccc24)CCCCC3)cc(C(C)(C)C)c1O` showed a Ratio IC50 [5] of 23.
For `O=C(Nc1ccccc1Cl)C(NS(=O)(=O)c1ccccc1)c1ccccc1` (configuration not stated), the IC50 (Cholinesterase [4]) was 7.33 µM and the inhibition [6] was 1.62%.
In the case of `C/C(NCCCCNc1c2c(nc3ccccc13)CCCC2)=C(/N=N/c1ccc(C)cc1)C(=O)c1ccccc1`, the IC50 (Cholinesterase [7]) is reported as 0.35 µM.
Work on `c1ccc(CN2CCC(NCCCCCCn3c4ccccc4c4ccccc43)CC2)cc1` yielded an IC50 (Cholinesterase [4]) of 0.18 µM and an IC50 (Acetylcholinesterase [8]) of 26.5 µM.
Work on `COc1cccc(NC(=O)CN(C)[C@@H](C)C(=O)c2c[nH]c3ccccc23)c1` yielded an IC50 (Cholinesterase [9]) of 4.24 µM and an IC50 (Acetylcholinesterase [10]) greater than 100 µM.
`CCN(CC)Cc1ccccc1CNC(=O)c1cccc(NC(=O)c2cccc(NC(=O)CCCCCCC(=O)NO)c2)c1` showed an IC50 [11] of 0.0089 µM and an IC50 (Cholinesterase [12]) of 0.004 µM.
With `O=C(CNCCCCNCC(=O)Nc1c2c(nc3c1CCC3)CCCC2)Nc1c2c(nc3c1CCC3)CCCC2` the Ratio IC50 [13] was 22.
`CCC(CC)CN[C@H](Cc1c[nH]c2ccccc12)C(=O)NCCN1CCc2ccccc2C1` gave an IC50 (Acetylcholinesterase [8]) greater than 10 µM and an IC50 (Cholinesterase [9]) of 0.3 µM.
With `CCN(C)C(=O)Oc1ccc(CCCNC(=O)c2cccc3[nH]c(-c4ccccc4O)nc23)cc1` the inhibition [14] was 60.8%.
`CCC(=O)N(CC(=O)Nc1ccccc1C)Cc1ccccc1` showed an IC50 (Acetylcholinesterase [15]) greater than 1610 µM and an IC50 (Cholinesterase [16]) of 25.9 µM.
`O=C(/C=C/c1ccccc1Cl)c1cc2ccccc2oc1=O` gave an IC50 [17] greater than 40 µM, an IC50 [18] of 0.51 µM and an IC50 [19] of 7 µM.
Work on `O=C(NCCCCCCCCNc1c2c(nc3ccccc13)CCCC2)c1ccccc1O` yielded an IC50 (Cholinesterase [20]) of 0.01 µM.
Compound `Cc1ccc(-c2nc3cc(C(=O)Nc4ccc(O)cc4)ccc3[nH]2)cc1` has an IC50 (Acetylcholinesterase [21]) greater than 100 µM and an IC50 [22] of 1.13 µM.
With `CCCCCCNC(=O)Oc1ccc2[nH]cc(CCNC(=O)c3ccccc3Nc3ccccc3)c2c1` the IC50 (Cholinesterase [4]) was 0.007 µM, the IC50 (Acetylcholinesterase [8]) was greater than 100 µM and the Ratio IC50 [23] was greater than 14300.
Work on `CCc1[nH]c2ccccc2c1CCN1CCC[C@H](CC)C1` yielded an IC50 (Cholinesterase [9]) of 0.65 µM and an IC50 (Acetylcholinesterase [10]) greater than 100 µM.
`[O-]/[N+](=C\c1ccc2cccc(O)c2n1)Cc1ccccc1` gave an IC50 [17] greater than 100 µM.
